Measurements published in ChEMBL document CHEMBL4811226, “Species Prioritization Based on Spectral Dissimilarity: A Case Study of Polyporoid Fungal Species” (J Nat Prod, 2021).
Calls of active or inactive are those of the source. No cut-off for these calls is given here.

Tested on: HCT-116
Assay: Cytotoxicity against human HCT-116 cells assessed as reduction in cell viability measured after 48 hrs by MTS assay
Format: functional, cell-based
Details: not given

SMILES	Activity
C=C1CC[C@H]2[C@](C)(COC(=O)[C@@H](CC(=O)O)[C@@H](OC[C@H]3C(=C)CC[C@H]4[C@](C)(CO)CCC[C@]34C)C(=O)OC)CCC[C@]2(C)[C@H]1CO[C@@H](C(=O)OC)[C@H](CC(=O)O)C(=O)OC(C)C	inactive
C=C1CC[C@H]2[C@](C)(COC(=O)[C@@H](CC(=O)OC)[C@@H](OC[C@H]3C(=C)CC[C@H]4[C@](C)(CO)CCC[C@]34C)C(=O)OC)CCC[C@]2(C)[C@H]1CO[C@@H](C(=O)OC)[C@H](CC(=O)OC)C(=O)OC	inactive
C=C1CC[C@H]2[C@@]3(C)CCC[C@]2(C)[C@H]1CO[C@@H](C(=O)OC)[C@H](CC(=O)O)C(=O)OC[C@]1(C)CCC[C@]2(C)[C@@H](CO[C@@H](C(=O)OC)[C@H](CC(=O)OC)C(=O)OC3)C(=C)CC[C@@H]12	inactive
C=C1CC[C@H]2[C@](C)(COC(=O)[C@@H](CC(=O)O)[C@@H](OC[C@H]3C(=C)CC[C@H]4[C@](C)(CO)CCC[C@]34C)C(=O)OC)CCC[C@]2(C)[C@H]1CO[C@@H](C(=O)OC)[C@H](CC(=O)O)C(=O)OC	inactive
C=C1CC[C@H]2[C@@]3(C)CCC[C@]2(C)[C@H]1CO[C@@H](C(=O)OC)[C@H](CC(=O)O)C(=O)OC[C@]1(C)CCC[C@]2(C)[C@@H](CO[C@@H](C(=O)OC)[C@H](CC(=O)O)C(=O)OC3)C(=C)CC[C@@H]12	inactive
C=C1CC[C@H]2[C@](C)(COC(=O)[C@@H](CC(=O)O)[C@@H](OC[C@H]3C(=C)CC[C@H]4[C@](C)(COC(=O)[C@@H](CC(=O)O)[C@@H](OC[C@H]5C(=C)CC[C@H]6[C@](C)(CO)CCC[C@]56C)C(=O)OC)CCC[C@]34C)C(=O)OC)CCC[C@]2(C)[C@H]1CO[C@@H](C(=O)OC)[C@H](CC(=O)OC)C(=O)O	inactive
C=C1CC[C@H]2C(C)(C)CCC[C@]2(C)[C@H]1CO[C@@H](C(=O)OC)[C@H](CC(=O)OC)C(=O)OC	inactive

Same assay, conditions: HCT-116, 48 h

SMILES	IC50 [µM]
C=C1CC[C@H]2[C@](C)(COC(=O)[C@@H](CC(=O)O)[C@@H](OC[C@H]3C(=C)CC[C@H]4[C@](C)(CO)CCC[C@]34C)C(=O)OC)CCC[C@]2(C)[C@H]1CO[C@@H](C(=O)OC)[C@H](CC(=O)OC)C(=O)OC	4.3
C=C1CC[C@H]2[C@](C)(COC(=O)[C@@H](CC(=O)OC)[C@@H](OC[C@H]3C(=C)CC[C@H]4[C@](C)(CO)CCC[C@]34C)C(=O)OC)CCC[C@]2(C)[C@H]1CO[C@@H](C(=O)OC)[C@H](CC(=O)O)C(=O)OC	3.6
